In patent US8546433B2, “Axl inhibitors for use in combination therapy for preventing, treating or managing metastatic cancer” (Rigel Pharmaceuticals, Inc., priority 2009, dated 2013):

Assays:
4T1 tumor cells [1] = experiment: Mouse 4T1 breast tumor model: Compound A in preventing lung and liver metastasis of a primary breast tumor (Biological Example 1); assay type: in vivo, BALB/c mice; conditions: 21 days; for effect on the incidence of liver micrometastases, difference to vehicle / effect on the incidence of liver micrometastases, difference to Cisplatin at 1.2 mg/kg: FIG. 4; for effect on the number of large lung metastases, difference to vehicle: FIG. 3; for effect on the number of medium lung metastases, difference to vehicle: FIG. 2
Method: Protocol Eighty-eight BALB/c mice were inoculated with 5×10^5 4T1 tumor cells (ATCC) orthotoically into the third mammary fat pad. On Day 0 of the study (2 days post-inoculation), 80 mice were randomized into 8 groups (10 mice per group). Dose administration began on Day 0 and continued for 21 days (3 weeks). Compound A was administered twice a day, Cisplatin was administered once a week, and Zometa was administered three times weekly. Tumor measurements were performed three times per week, starting when tumors were palpable (approximately 3×3 mm). Body weight measurements were taken three times per week at the same time each day. Tumor and body weight measurements fall all mice were measured prior to dose administration. On Day 21 of the treatment, mice were euthanized and the lungs exposed and the numbers of surface lung metastases were counted. The size of each metastasis was measured using a caliper in one dimenstion and categorized as follows: Small: Less than 2 mm Medium: Greater or equal to 2 mm Large: Greater or equal to 3 mm The lungs and livers from all mice were excised and placed in PLP fixative and stained for micrometastasis quantification.

4T1 tumor cells [2] = experiment: Mouse 4T1 breast tumor model: Compound A in combination with Cisplatin in preventing lung and liver metastasis (Biological Example 2); assay type: in vivo, BALB/c mice; conditions: 21 days, FIG. 7
Method: Using a variation of the mouse 4T1 breast tumor model, as described in Current Protocols in Immunology (2000), 20.2.1-20.2.16, Compound A in combination with Cisplatin was assayed to determine the efficacy of the combination therapy to prevent, treat or manage metastatic cancer in BALB/c mice.
• Vehicle: 0.5% HPMC/0.1% Tween. • Compound A: Preformulated dosing solutions in vehicle for 7 mg/kg and 21 mg/kg for oral administration. • Cisplatin: Diluted in sterile saline for 1.2 mg/kg (suboptimal clinical formulation) for intravenous administration. Protocol
Sixty-six BALB/c mice were inoculated with 5×10^5 4T1 tumor cells (ATCC) orthotoically into the third mammary fat pad. On Day 0 of the study (2 days post-inoculation), 60 mice were randomized into 6 groups (10 mice per group). Dose administration began on Day 0 and continued for 21 days (3 weeks). Compound A was administered twice a day, Cisplatin was administered once a week, and Zometa was administered three times weekly. Tumor measurements were performed three times per week, starting when tumors were palpable (approximately 3×3 mm). Body weight measurements were taken three times per week at the same time each day. Tumor and body weight measurements fall all mice were measured prior to dose administration.
On Day 21 of the treatment, mice were euthanized and the lungs exposed and the number of surface lung metastases were counted. The size of each metastasis was measured using a caliper in one dimenstion and categorized as follows:
Medium: Greater or equal to 2 mm
Large: Greater or equal to 3 mm
The lungs and livers from all mice were excised and placed in PLP fixative and stained for micrometastasis quantification.

[3] = Cisplatin 1.2 mg/kg intravenous once a week, p<0.05, Mann-Whitney Test
[4] = Cisplatin 2.4 mg/kg intravenous once a week, p<0.05, Mann-Whitney Test
[5] = Compound A 25 mg/kg oral twice a day, p<0.05, Mann-Whitney Test
[6] = Compound A 45 mg/kg oral twice a day, p<0.05, Mann-Whitney Test

O=P(O)(O)C(O)(Cn1ccnc1)P(=O)(O)O [Zometa, reference compound]
significant: effect on the incidence of liver micrometastases, difference to vehicle (4T1 tumor cells [1]; Zometa 0.1 mg/kg subcutaneous three times weekly, p<0.05, Mann-Whitney Test)

N.N.[Cl][Pt][Cl] [Cisplatin, cis-diamminedichloridoplatinum(II), reference compound]
significant: effect on the number of large lung metastases, difference to vehicle (4T1 tumor cells [1]; [3]) | effect on the number of large lung metastases, difference to vehicle (4T1 tumor cells [1]; [4]) | effect on the incidence of liver micrometastases, difference to Cisplatin at 1.2 mg/kg (4T1 tumor cells [1]; [4]) | effect on the incidence of liver micrometastases, difference to Cisplatin at 1.2 mg/kg (4T1 tumor cells [1]; Cisplatin 4 mg/kg intravenous once a week, p<0.05, Mann-Whitney Test) | effect on the number of medium lung metastases, difference to vehicle (4T1 tumor cells [1]; cisplatin 4 mg/kg intravenous once a week, p<0.001, Mann-Whitney Test) | effect on reducing the number of large lung metastases, difference to vehicle (4T1 tumor cells [2]; [3])

Nc1nc(Nc2ccc3c(c2)CC[C@@H](N2CCCC2)CC3)nn1-c1cc2c(nn1)-c1ccccc1CCC2 [Compound A, 1-(6,7-dihydro-5H-benzo[6,7]cyclohepta[1,2-c]pyridazin-3-yl)-N^3-((7-(S)-pyrrolidin-1-yl)-6,7,8,9-tetrahydro-5H-benzo[7]annulene-2-yl)-1H-1,2,4-triazole-3,5-diamine]
significant: effect on the number of large lung metastases, difference to vehicle (4T1 tumor cells [1]; [5]) | effect on the incidence of liver micrometastases, difference to vehicle (4T1 tumor cells [1]; [5]) | effect on the number of medium lung metastases, difference to vehicle (4T1 tumor cells [1]; [6]) | effect on the incidence of liver micrometastases, difference to vehicle (4T1 tumor cells [1]; [6]) | effect on the incidence of liver micrometastases, difference to vehicle (4T1 tumor cells [1]; Compound A 75 mg/kg oral twice a day, p<0.05, Mann-Whitney Test) | effect on reducing the number of large lung metastases, difference to vehicle (4T1 tumor cells [2]; Compound A 7 mg/kg oral twice a day, p<0.01, Mann-Whitney Test) | effect on reducing the number of large lung metastases, difference to vehicle (4T1 tumor cells [2]; Compound A 21 mg/kg oral twice a day, p<0.01, Mann-Whitney Test)
